Data from US5631259A, “Cycloalkltriols containing cyclic substituents, processes and intermediate products for their preparation and their use as antiviral and antiparasitic agents” (priority 1991, dated 1997).

Key:
[1] = in vitro; details: human, hela cells
[2] = system: Pneumocystis carinii; test: Pneumocystis carinii pneumonia in dexamethasone-treated rats, bronchial lavage evaluated with Pneumocystis carinii test kit; assay type: in vivo, Spraque-Dawley rats; details: Monday, Wednesday and Friday for two weeks
Description: Pneumocystis carinii--Description of the experiment and results
Spraque-Dawley rats, 200-220 g, were collected into groups of 10 animals and treated with dexamethasone 1.5 mg/ml; of loxacin 0.2 mg/rat via the drinking water in order to induce the outbreak of pneumonia caused by Pneumocystis carinii.
After 7 weeks, the dexamethasone treatment was stopped and the preparation treatment was started.
Treatment was carried out every Monday, Wednesday and Friday for two weeks as follows:
2. pentamidine 20 mg/kg i.m.
3. pentamidine 40 mg/kg i.m.
After the two treatment weeks, a bronchial lavage was performed on the animals under Nembutal anesthesia.
The bronchial suspensions obtained were worked up and evaluated using the Pneumocystis carinii test kit from Progen Biotechnik GmbH, Heidelberg, Germany.

CNc1ncnc2c1ncn2[C@H]1C[C@@H](O)[C@H](O)[C@@H]1O (relative stereo) [Example 3.3, N^6-methyl-9-[(1RS,2SR,3RS,4SR)-trihydroxy-cyclopent-1-yl]adenine]
MNTC [1]: > 400 µg/mL

Nc1ncnc2c1ncn2[C@@H]1C[C@H](O)[C@@H](O)[C@H]1O (racemic) [Example 3.1.1, 9-[(1RS,2SR,3RS,4SR)-2,3,4-trihydroxycyclo-pent-1-yl]adenine]
MNTC [1]: > 400 µg/mL

O=c1c(Cl)c(Cl)cnn1[C@@H]1C[C@H](O)[C@@H](O)[C@H]1O (racemic) [Example 3.10.1, 4,5-dichloro-2-[(1RS,2SR,3RS,4SR)-2,3,4-trihydroxy-cyclopent-1-yl]pyridazin-3(2H)-one]
Reduction (%) ([2]; 20 mg/kg oral): 22.9%

N=C(N)c1ccc(OCCCCCOc2ccc(C(=N)N)cc2)cc1 [pentamidine]
Reduction (%) ([2]; 20 mg/kg i.m.): 37.7%
Reduction (%) ([2]; 40 mg/kg i.m.): 16.9%
